# Assay results: ChEMBL document CHEMBL1128091, “Ly316340: A potent HIV-1 protease inhibitor containing a high affinity octahydrothienopyridine hydroxyethylamine isostere” (Bioorg Med Chem Lett, 1995)
# Experiments:
# [1] = Bioavailability was evaluated in rats at a dose of 20 mg/kg, under fasting state; assay type: ADME, organism-based; details: rat, in vivo
# Rattus norvegicus = experiment: (§1) Cmax value was evaluated in rats at a dose of 20 mg/kg; assay type: ADME, organism-based; parameters: dose 20 mg/kg; details: in vivo
# [2] = as §1; assay type: ADME, organism-based; parameters: dose 20 mg/kg; details: rat, in vivo
# [3] = Bioavailability was evaluated in rats at a dose of 20 mg/kg, under fed state; assay type: ADME, organism-based; details: rat, in vivo
# CEM-SS [4] = experiment: (§2) Inhibitory concentration required for antiviral activity against HXB-2 infected CEM-SS cells; assay type: functional; details: Homo sapiens
# CEM-SS [5] = experiment: as §2; assay type: functional, cell-based; details: Homo sapiens
# [6] = biological target: Human immunodeficiency virus type 1 protease (Human immunodeficiency virus 1, UniProt Q72874); experiment: Inhibitory concentration required against HIV-1 protease
SMILES,IC95 (CEM-SS [4]),IC50 (CEM-SS [5]),IC50 [6],further results
CS(=O)(=O)O.Cc1c(O)cccc1C(=O)N[C@@H](CSc1ccccc1)[C@H](O)CN1C[C@H]2CCS[C@H]2C[C@H]1C(=O)NC(C)(C)C,,,,bioavailability [1]: 22%; Cmax (Rattus norvegicus): 1000 nM; Cmax [2]: 1400 nM; bioavailability [3]: 19%
CC(C)(C)NC(=O)[C@@H]1C[C@@H]2CCCC[C@@H]2CN1C[C@@H](O)[C@H](Cc1ccccc1)NC(=O)[C@H](CC(N)=O)NC(=O)c1ccc2ccccc2n1,21 nM,6.6 nM,,
Cc1c(O)cccc1C(=O)N[C@@H](Cc1ccccc1)[C@H](O)CN1C[C@H]2CCCC[C@H]2C[C@H]1C(=O)NC(C)(C)C,135 nM,33 nM,13 nM,
CC(C)(C)NC(=O)[C@@H]1C[C@@H]2SCC[C@@H]2CN1C[C@@H](O)[C@H](Cc1ccccc1)NC(=O)OCc1ccccc1,,,6.6 nM,
Cc1c(O)cccc1C(=O)N[C@@H](CSc1ccccc1)[C@H](O)CN1C[C@H]2CCS[C@H]2C[C@H]1C(=O)NC(C)(C)C,18 nM,5.1 nM,0.3 nM,
CC(C)(C)NC(=O)[C@@H]1C[C@@H]2CCCC[C@@H]2CN1C[C@@H](O)[C@H](Cc1ccccc1)NC(=O)OCc1ccccc1,,,127 nM,
Cc1c(O)cccc1C(=O)N[C@@H](Cc1ccccc1)[C@H](O)CN1C[C@H]2CCS[C@H]2C[C@H]1C(=O)NC(C)(C)C,1360 nM,24 nM,0.5 nM,
